Laboratory results taken from US12606543B2, “Indole derivatives as serotonergic agents useful for the treatment of disorders related thereto” (priority 2023, dated 2026).
Read-outs that look alike come from different tables or passages of the source.

Experiments:
Assay type in all cases: in vitro ADME
[1] = Liver microsomes stability, human; conditions: for CLint scaled at 2 μM: read-out: Scaled-up CLint
Experimental: The objective of this study was to estimate in vitro metabolic stability of exemplary compounds of Formula (I) or a pharmaceutically acceptable salt, solvate, and/or prodrug thereof in pooled human, male rat, and male mouse liver microsomes. The concentrations of compounds in reaction systems were evaluated by LC-MS/MS for estimating the stability in pooled human, male rat, and male mouse liver microsomes. The in vitro intrinsic clearances of test compounds were determined as well.
A master solution in the “Incubation Plate” containing phosphate buffer, ultra-pure H2O, MgCl2 solution and liver microsomes was made according to Table 33. The mixture was pre-warmed at 37° C. water bath for 5 minutes.
40 μL of 10 mM nicotinamide adenine dinucleotide phosphate (NADPH) solution was added to each well. The final concentration of NADPH was 1 mM. The negative control samples were prepared by replacing NADPH with 40 μL of ultra-pure H2O. Samples were prepared in duplicate. Negative controls were prepared in singlet.
The reaction was started with the addition of 4 μL of 200 μM exemplary test compounds of the disclosure or control compounds to each master solution to get the final concentration of 2 μM. This study was performed in duplicate.
Aliquots of 50 μL were taken from the reaction solution at 0, 15, 30, 45, and 60 minutes. The reaction solutions were stopped by the addition of 4 volumes of cold methanol with IS (100 nM alprazolam, 200 nM imipramine, 200 nM labetalol, and 2 μM ketoprofen). Samples were centrifuged at 3,220 g for 40 minutes. Aliquot of 90 μL of the supernatant was mixed with 90 μL of ultra-pure H2O and then was used for LC-MS/MS analysis.
LC/MS analysis was performed for all samples from this study using a Shimadzu liquid chromatograph separation system equipped with degasser DGU-20A5R; solvent delivery unit LC-30AD; system controller SIL-30AC; column oven CTO-30A; CTC Analytics HTC PAL System. Mass spectrometric analysis was performed using a Triple Quad™ 5500 instrument.
All calculations were carried out using Microsoft Excel. Peak area ratios of test compound to internal standard (listed in the below table) were determined from extracted ion chromatograms.
All calculations were carried out using Microsoft Excel. Peak areas were determined from extracted ion chromatograms. The slope value, k, was determined by linear regression of the natural logarithm of the remaining percentage of the parent drug vs. incubation time curve.
The in vitro half-life (in vitro t1/2) was determined from the slope value:
Conversion of the in vitro t1/2 (min) into the in vitro intrinsic clearance (in vitro CLint, in μL/min/mg proteins) was done using the following equation (mean of duplicate determinations): […]
The objective of this study was to estimate in vitro metabolic stability of exemplary compounds of Formula (I) or a pharmaceutically acceptable salt, solvate and/or prodrug thereof in pooled human, male rat and male mouse liver microsomes. The concentrations of compounds in reaction systems were evaluated by LC-MS/MS for estimating the stability in pooled human, male rat and male mouse liver microsomes. The in vitro intrinsic clearances of test compounds were determined as well.
A master solution in the “Incubation Plate” containing phosphate buffer, ultra-pure H2O, MgCl2 solution and liver microsomes was made according to Table 67. The mixture was pre-warmed at 37° C. water bath for 5 minutes.
40 μL of 10 mM NADPH solution was added to each well. The final concentration of NADPH was 1 mM. The negative control samples were prepared by replacing NADPH with 40 μL of ultra-pure H2O. Samples were prepared in duplicate. Negative controls were prepared in singlet
Aliquots of 50 μL were taken from the reaction solution at 0, 15, 30, 45 and 60 minutes. The reaction solutions were stopped by the addition of 4 volumes of cold methanol with IS (100 nM alprazolam, 200 nM imipramine, 200 nM labetalol and 2 μM ketoprofen).

[2] = Plasma protein binding by equilibrium dialysis, dog; conditions: for recovery at 6 h, 1 µM / fraction unbound at 6 h, 1 μM: Beagle; for recovery at 6 h, 1 µM: dog; for fraction unbound at 6 h, 1 μM: read-out: % Bound (converted)
Experimental: (§1) The final concentration of compound was 1 μM. The final concentration of DMSO was 0.5%. Ketoconazole was used as positive control in the assay.
(§2) The assay was performed in duplicate.
(§3) All calculations were carried out using Microsoft Excel. […] The percentages of bound compound were calculated as follows: […]
(§4) Ketoconazole was used as positive control in the assay.

[3] = Plasma protein binding by equilibrium dialysis, human; conditions: for fraction unbound at 6 h, 1 μM: read-out: % Bound (converted); for recovery at 6 h, 1 µM: human, plasma
Experimental: as §1, §2, §3, §4

[4] = human liver microsomes, 2 μM compound, 0.5 mg/mL microsomes
[5] = human liver microsomes, With Cofactors, 0 min
[6] = human liver microsomes, With Cofactors, 30 min
[7] = human liver microsomes, With Cofactors, 60 min
[8] = human liver microsomes, Without Cofactors, 0 min
[9] = human liver microsomes, Without Cofactors, 30 min
[10] = human liver microsomes, Without Cofactors, 60 min
[11] = dog plasma, equilibrium dialysis, 37° C., 6 hours
[12] = human plasma, equilibrium dialysis, 37° C., 6 hours
[13] = Human liver microsomes, 2 μM, 0.5 mg/mL, NADPH

SMILES | Predicted hepatic CL ([1]; human liver microsomes) [mL/min/kg] | half-life at 2 μM [1, 4] [min] | microsomal CLint at 2 μM [1, 4] [µL/min/mg] | Remaining Percentage [1, 5] [%] | Remaining Percentage [1, 6] [%] | Remaining Percentage [1, 7] [%] | Remaining Percentage [1, 8] [%] | Remaining Percentage [1, 9] [%] | Remaining Percentage [1, 10] [%] | CLint scaled at 2 μM ([1]; human liver microsomes) [mL/min/kg] | recovery at 6 h, 1 µM [2, 11] [%] | fraction unbound at 6 h, 1 μM [2, 11] | % Remaining @ 6 hours ([2]; dog plasma, 6 hours) [%] | % Remaining @ 6 hours ([3]; human plasma, 6 hours) [%] | fraction unbound at 6 h, 1 μM [3, 12] | recovery at 6 h, 1 µM [3, 12] [%] | other results
[2H]C([2H])(c1c[nH]c2ccc(OCCCCCN3C(=O)C4CCCCC4C3=O)cc12)[C@H]1CCCN1C([2H])([2H])[2H] (mixture of isomers) [Rac (R) I-248] | >19.64 | < 4.51 | > 307 | 100.00 | 0.04 | 0.00 | 100.00 | 100.47 | 98.60 | > 385 |  |  |  |  |  |  | 
[2H]C([2H])(c1c[nH]c2ccc(OCCCCN3C(=O)c4ccccc4C3=O)cc12)[C@H]1CCCN1C([2H])([2H])[2H] [(R) I-244, (R)-2-(4-((3-((1-(Methyl-d3)pyrrolidin-2-yl)methyl-d2)-1H-indol-5-yl)oxy)butyl)isoindoline-1,3-dione] | 19.32 | 5.98 | 232 | 100.00 | 3.10 | 0.00 | 100.00 | 94.44 | 88.07 | 290 | 94.6 | 0.0281 | 94.07 | 105.89 | 0.0142 | 90.1 | 
CSc1ccc2[nH]cc(C[C@H]3CCCN3C)c2c1 [(R) I-1, (R)-3-((1-Methylpyrrolidin-2-yl)methyl)-5-(methylthio)-1H-indole] |  |  |  |  |  |  |  |  |  |  |  |  |  |  |  |  | Predicted hepatic CL ([1]; Human liver microsomes): 16.09 mL/min/kg; half-life at 2 μM [1, 13]: 24 min; microsomal CLint at 2 μM [1, 13]: 57.7 µL/min/mg; CLint scaled at 2 μM ([1]; Human liver microsomes): 72.3 mL/min/kg; Remaining Percentage (%) 0 min [1, 5]: 100.00%; Remaining Percentage (%) 30 min [1, 6]: 50.51%; Remaining Percentage (%) 60 min [1, 7]: 17.72%; Remaining Percentage (%) 0 min [1, 8]: 100.00%; Remaining Percentage (%) 30 min [1, 9]: 101.47%; Remaining Percentage (%) 60 min [1, 10]: 97.56%; recovery at 6 h, 1 µM ([2]; Dog plasma, 1 μM, equilibrium dialysis 6 hours): 92.9%; fraction unbound at 6 h, 1 μM ([2]; Dog plasma, 1 μM, equilibrium dialysis 6 hours, 37° C.): 0.174; % Remaining @ 6 hours ([2]; Dog plasma, 1 μM, 6 hours, 37° C.): 95.50%; % Remaining @ 6 hours ([3]; Human plasma, 1 μM, 6 hours, 37° C.): 103.38%; fraction unbound at 6 h, 1 μM ([3]; Human plasma, 1 μM, equilibrium dialysis 6 hours, 37° C.): 0.16; recovery at 6 h, 1 µM ([3]; Human plasma, 1 μM, equilibrium dialysis 6 hours): 102%
[2H]C([2H])(c1c[nH]c2ccc(OCCCCCN3C(=O)c4ccccc4C3=O)cc12)[C@H]1CCCN1C([2H])([2H])[2H] [(R) I-245, (R)-2-(5-((3-((1-(Methyl-d3)pyrrolidin-2-yl)methyl-d2)-1H-indol-5-yl)oxy)pentyl)isoindoline-1,3-dione] | 18.11 | 12 | 115 | 100.00 | 14.62 | 3.13 | 100.00 | 101.09 | 98.91 | 145 |  |  |  |  |  |  | 
COCCN1CCC[C@@H]1Cc1c[nH]c2ccc(OC)cc12 [(R) I-98, (R)-5-Methoxy-3-((1-(2-methoxyethyl)pyrrolidin-2-yl)methyl)-1H-indole] | 11.72 | 64.3 | 21.6 |  | 100.00 | 67.04 |  | 100.00 | 98.21 | 27 | 104 | 0.157 | 110.92 | 104.64 | 0.168 | 101 | 
